Assays:
Assay in all cases: minimum inhibition concentration and Kull synergy index of LAE / potassium sorbate
Assay type in all cases: cell-based
[1] = system: Staphylococcus aureus (ATCC 6538); details: for SI, synergy index: <1 synergism, 1 addition, >1 antagonism
Protocol: (§1) The invention is now explained by a number of examples. In these examples LAE and sorbate alone and in a number of different combinations have been investigated against a number of bacterial preparations. For the analysis usually an internal method was used. Conditions and medium were Mueller Hinton broth (pH 7.4) or (pH 5.0) for bacteria, Sabouraud broth (pH 5.8) for yeast and Sabouraud medium for moulds. The interaction of the two components of the antimicrobial mixture is calculated according to the method described by Kull et al. (Kull […]. and Mayer R. L., Applied Microbiology, 1961; 6:538-541). According to this method the so-called synergy index is calculated according to the following formula: Synergy index […]. […] Again the effects of the components alone and in combination have been calculated using the same method as described at Example 1.

[2] = system: Bacillus megaterium (CECT 44); details: pH 7.4, aqueous solutions
Protocol: as §1

[3] = system: Penicillium camemberti (CECT 2267); details: for SI, synergy index: <1 synergism, 1 addition, >1 antagonism
Protocol: (§2) The invention is now explained by a number of examples. In these examples LAE and sorbate alone and in a number of different combinations have been investigated against a number of bacterial preparations. For the analysis usually an internal method was used. Conditions and medium were Mueller Hinton broth (pH 7.4) or (pH 5.0) for bacteria, Sabouraud broth (pH 5.8) for yeast and Sabouraud medium for moulds. The interaction of the two components of the antimicrobial mixture is calculated according to the method described by Kull et al. (Kull […]. and Mayer R. L., Applied Microbiology, 1961; 6:538-541). According to this method the so-called synergy index is calculated according to the following formula: Synergy index […]. […] The same method was used as described for example 1. […] Again the effects of the components alone and in combination have been calculated using the same method as described at Example 1.

[4] = system: Escherichia coli (ATCC 8739); details: for SI, synergy index: <1 synergism, 1 addition, >1 antagonism
Protocol: as §2

[5] = system: Citrobacter intermedium (CECT 401); details: for SI, synergy index: <1 synergism, 1 addition, >1 antagonism
Protocol: as §2

[6] = system: Enterobacter aerogenes (ATCC 13048); details: for SI, synergy index: <1 synergism, 1 addition, >1 antagonism
Protocol: as §2

[7] = system: Cladosporium cladosporioides (ATCC 16022); details: for SI, synergy index: <1 synergism, 1 addition, >1 antagonism
Protocol: as §2

[8] = system: Candida albicans (ATCC 10231); details: for SI, synergy index: <1 synergism, 1 addition, >1 antagonism
Protocol: as §2, with “Conditions and medium were Mueller Hinton broth (pH 7.4) or (pH 5.0) for bacteria, Sabouraud broth (pH 5.8) for yeast and Sabouraud medium for moulds.” left out

[9] = system: Bacillus subtilis (CECT 356); details: for SI, synergy index: <1 synergism, 1 addition, >1 antagonism
Protocol: The invention is now explained by a number of examples. In these examples LAE and sorbate alone and in a number of different combinations have been investigated against a number of bacterial preparations. For the analysis usually an internal method was used. Conditions and medium were Mueller Hinton broth (pH 7.4) or (pH 5.0) for bacteria, Sabouraud broth (pH 5.8) for yeast and Sabouraud medium for moulds. […] The interaction of the two components of the antimicrobial mixture is calculated according to the method described by Kull et al. (Kull […]. and Mayer R. L., Applied Microbiology, 1961; 6:538-541). According to this method the so-called synergy index is calculated according to the following formula: Synergy index […]. […] All indicated symbols indicate a particular concentration leading to a particular end point, in this case the inhibition of growth of Bacillus subtilis, so that the selected end point is in fact the minimal inhibitory concentration (mic).

[10] = pH 7.4, propylene glycol solutions

SMILES: C/C=C/C=C/C(=O)[O-].[K+] [potassium sorbate]
- QS, minimum inhibition concentration of potassium sorbate as single antimicrobial ([1]; pH 5.0): 1024
- Qlae, minimum inhibition concentration of LAE in the mixture ([1]; pH 5.0): 0
- Qlae/QLAE ([1]; pH 5.0): 0
- Qs, minimum inhibition concentration of potassium sorbate in the mixture ([1]; pH 5.0): 1024.00
- Qs/QS ([1]; pH 5.0): 1.00
- SI, synergy index ([1]; pH 5.0): 1.00
- QS, minimum inhibition concentration of potassium sorbate as single antimicrobial ([1]; pH 7.4, aqueous solutions): 1536
- Qlae, minimum inhibition concentration of LAE in the mixture ([1]; pH 7.4, aqueous solutions): 0
- Qlae/QLAE ([1]; pH 7.4, aqueous solutions): 0.0
- Qs, minimum inhibition concentration of potassium sorbate in the mixture ([1]; pH 7.4, aqueous solutions): 1536
- Qs/QS ([1]; pH 7.4, aqueous solutions): 1.00
- SI, synergy index ([1]; pH 7.4, aqueous solutions): 1.00
- QS, minimum inhibition concentration of potassium sorbate as single antimicrobial [2]: 1024
- Qlae, minimum inhibition concentration of LAE in the mixture [2]: 0
- Qlae/QLAE [2]: 0
- Qs, minimum inhibition concentration of potassium sorbate in the mixture [2]: 1024
- Qs/QS [2]: 1.00
- SI, synergy index ([2]; <1 synergism, 1 addition, >1 antagonism): 1.00
- QS, minimum inhibition concentration of potassium sorbate as single antimicrobial ([3]; pH 5.0): 1024
- Qlae, minimum inhibition concentration of LAE in the mixture ([3]; pH 5.0): 0
- Qlae/QLAE ([3]; pH 5.0): 0
- Qs, minimum inhibition concentration of potassium sorbate in the mixture ([3]; pH 5.0): 1024.00
- Qs/QS ([3]; pH 5.0): 1.00
- SI, synergy index ([3]; pH 5.0): 1.00
- QS, minimum inhibition concentration of potassium sorbate as single antimicrobial ([3]; pH 7.4, aqueous solutions): 2048
- Qlae, minimum inhibition concentration of LAE in the mixture ([3]; pH 7.4, aqueous solutions): 0
- Qlae/QLAE ([3]; pH 7.4, aqueous solutions): 0
- Qs, minimum inhibition concentration of potassium sorbate in the mixture ([3]; pH 7.4, aqueous solutions): 2048
- Qs/QS ([3]; pH 7.4, aqueous solutions): 1.00
- SI, synergy index ([3]; pH 7.4, aqueous solutions): 1.00
- QS, minimum inhibition concentration of potassium sorbate as single antimicrobial ([4]; pH 5.0): 1024
- Qlae, minimum inhibition concentration of LAE in the mixture ([4]; pH 5.0): 0
- Qlae/QLAE ([4]; pH 5.0): 0
- Qs, minimum inhibition concentration of potassium sorbate in the mixture ([4]; pH 5.0): 1024.00
- Qs/QS ([4]; pH 5.0): 1.00
- SI, synergy index ([4]; pH 5.0): 1.00
- QS, minimum inhibition concentration of potassium sorbate as single antimicrobial ([4]; pH 7.4, aqueous solutions): 1536
- Qlae, minimum inhibition concentration of LAE in the mixture ([4]; pH 7.4, aqueous solutions): 0
- Qlae/QLAE ([4]; pH 7.4, aqueous solutions): 0
- Qs, minimum inhibition concentration of potassium sorbate in the mixture ([4]; pH 7.4, aqueous solutions): 1536
- Qs/QS ([4]; pH 7.4, aqueous solutions): 1.00
- SI, synergy index ([4]; pH 7.4, aqueous solutions): 1.00
- QS, minimum inhibition concentration of potassium sorbate as single antimicrobial ([5]; pH 5.0): 512
- Qlae, minimum inhibition concentration of LAE in the mixture ([5]; pH 5.0): 0
- Qlae/QLAE ([5]; pH 5.0): 0
- Qs, minimum inhibition concentration of potassium sorbate in the mixture ([5]; pH 5.0): 1024.00
- Qs/QS ([5]; pH 5.0): 1.00
- SI, synergy index ([5]; pH 5.0): 1.00
- QS, minimum inhibition concentration of potassium sorbate as single antimicrobial ([5]; pH 7.4, aqueous solutions): 1536
- Qlae, minimum inhibition concentration of LAE in the mixture ([5]; pH 7.4, aqueous solutions): 0
- Qlae/QLAE ([5]; pH 7.4, aqueous solutions): 0
- Qs, minimum inhibition concentration of potassium sorbate in the mixture ([5]; pH 7.4, aqueous solutions): 1536
- Qs/QS ([5]; pH 7.4, aqueous solutions): 1.00
- SI, synergy index ([5]; pH 7.4, aqueous solutions): 1.00
- QS, minimum inhibition concentration of potassium sorbate as single antimicrobial ([6]; pH 5.0): 1024
- Qlae, minimum inhibition concentration of LAE in the mixture ([6]; pH 5.0): 0
- Qlae/QLAE ([6]; pH 5.0): 0
- Qs, minimum inhibition concentration of potassium sorbate in the mixture ([6]; pH 5.0): 1024.00
- Qs/QS ([6]; pH 5.0): 1.00
- SI, synergy index ([6]; pH 5.0): 1.00
- QS, minimum inhibition concentration of potassium sorbate as single antimicrobial ([6]; pH 7.4, aqueous solutions): 1536
- Qlae, minimum inhibition concentration of LAE in the mixture ([6]; pH 7.4, aqueous solutions): 0
- Qs, minimum inhibition concentration of potassium sorbate in the mixture ([6]; pH 7.4, aqueous solutions): 1536
- Qs/QS ([6]; pH 7.4, aqueous solutions): 1.00
- SI, synergy index ([6]; pH 7.4, aqueous solutions): 1.00
- QS, minimum inhibition concentration of potassium sorbate as single antimicrobial ([7]; pH 5.0): 1024
- Qlae, minimum inhibition concentration of LAE in the mixture ([7]; pH 5.0): 0
- Qlae/QLAE ([7]; pH 5.0): 0
- Qs, minimum inhibition concentration of potassium sorbate in the mixture ([7]; pH 5.0): 1024.00
- Qs/QS ([7]; pH 5.0): 1.00
- SI, synergy index ([7]; pH 5.0): 1.00
- QS, minimum inhibition concentration of potassium sorbate as single antimicrobial ([7]; pH 7.4, aqueous solutions): 1024
- Qlae, minimum inhibition concentration of LAE in the mixture ([7]; pH 7.4, aqueous solutions): 0
- Qlae/QLAE ([7]; pH 7.4, aqueous solutions): 0.00
- Qs, minimum inhibition concentration of potassium sorbate in the mixture ([7]; pH 7.4, aqueous solutions): 1024
- Qs/QS ([7]; pH 7.4, aqueous solutions): 1.00
- SI, synergy index ([7]; pH 7.4, aqueous solutions): 1.00
- QS, minimum inhibition concentration of potassium sorbate as single antimicrobial ([8]; pH 5.0): 1024
- Qlae, minimum inhibition concentration of LAE in the mixture ([8]; pH 5.0): 0
- Qlae/QLAE ([8]; pH 5.0): 0
- Qs, minimum inhibition concentration of potassium sorbate in the mixture ([8]; pH 5.0): 1024.00
- Qs/QS ([8]; pH 5.0): 1.00
- SI, synergy index ([8]; pH 5.0): 1.00
- QS, minimum inhibition concentration of potassium sorbate as single antimicrobial ([8]; pH 7.4, aqueous solutions): 1024
- Qlae, minimum inhibition concentration of LAE in the mixture ([8]; pH 7.4, aqueous solutions): 0
- Qlae/QLAE ([8]; pH 7.4, aqueous solutions): 0
- Qs, minimum inhibition concentration of potassium sorbate in the mixture ([8]; pH 7.4, aqueous solutions): 1024.00
- Qs/QS ([8]; pH 7.4, aqueous solutions): 1.00
- SI, synergy index ([8]; pH 7.4, aqueous solutions): 1.00
- QS, minimum inhibition concentration of potassium sorbate as single antimicrobial ([9]; pH 5.0): 1024
- Qlae, minimum inhibition concentration of LAE in the mixture ([9]; pH 5.0): 0
- Qlae/QLAE ([9]; pH 5.0): 0
- Qs, minimum inhibition concentration of potassium sorbate in the mixture ([9]; pH 5.0): 1024.00
- Qs/QS ([9]; pH 5.0): 1.00
- SI, synergy index ([9]; pH 5.0): 1.00
- QS, minimum inhibition concentration of potassium sorbate as single antimicrobial [9, 10]: 1024
- Qlae, minimum inhibition concentration of LAE in the mixture [9, 10]: 0
- Qlae/QLAE [9, 10]: 0
- Qs, minimum inhibition concentration of potassium sorbate in the mixture [9, 10]: 1024
- Qs/QS [9, 10]: 1.00
- SI, synergy index [9, 10]: 1.00
